Here are results for 31 molecules from patent publication US20080221114A1, “2-(Cyclic Aminocarbonyl) Indoline Derivative and Medicinal Composition Containing the Same” (priority 2005, published 2008).

For orientation: melting point means the temperature of the solid-liquid transition. For orientation: IC50 means the concentration that inhibits the measured activity by half.

Tested on in one data set: not given
Test: not given
Conditions: not given
Take `Cn1nc(N2c3ccccc3C[C@H]2C(=O)N2CCCCCC2)ccc1=O` (hydrate or solvate) [Example 118, (S)-1-(1-methyl-6-oxo-1,6-dihydropyridazin-3-yl)-2-[(1-perhydroazepinyl)carbonyl]indoline]: the melting point lay in the range of 198 to 199 °C.

Another data set has as its target T1, mitochondrial benzodiazepine receptor (MBR) (Rattus norvegicus, UniProt P16257).
T1 construct: from tissue; host or cells: kidney of male Wistar rats (crude membrane preparation)
As to the kind of experiment: Binding assay of mitochondrial benzodiazepine receptor (MBR), [3H]4'-chlorodiazepam (Ro5-4864), rat kidney membrane-preparation. The conditions noted are these: rat kidney membranes, [3H]4'-chlorodiazepam 0.5 nM, 0° C. for 150 minutes. As for the experimental part:
The binding assay of central-type benzodiazepine receptor (CBR) and the preparation of receptor membrane-preparation were carried out according to the partially modified method of Braestrup, C. et al. [see; Br. J. Psychiatry, 133, 249-260 (1978)] with a minor modification; the binding assay of mitochondrial benzodiazepine receptor (MBR) and the preparation of receptor membrane-preparation were carried out according to the method of Schoemaker, H [see; J. Pharmacol. Exp. Ther., 225, 61-69 (1983)] with a minor modification.
CBR and MBR membrane-preparations were prepared from forebrain (CBR) and kidney (MBR) of male Wistar strain rats according to the following procedure, respectively.
To the forebrain of rat, 20 volumes of ice-cold 0.32 M sucrose solution to wet-weight of the tissue (1:20, wet-weight/vol) was added and homogenized, and then the homogenate was centrifuged at 900×g for 10 minutes. The supernatant was centrifuged at 11,500×g for 20 minutes, a buffer I for the binding assay (50 mM Tris-hydrochloric acid buffer, pH 7.5) was added to the resultant precipitate, and the mixture was homogenized, and then it was centrifuged at 30,000×g for 10 minutes. The resulting precipitate was washed 3 times according to the same operation, suspended in the buffer I (1 g of wet-weight of tissue/10 ml) and used as a CBR membrane-preparation for the binding assay. The CBR membrane-preparation was stored at −80° C. until use, and on the day of the assay, it was thawed and suspended in the buffer for use. On the other hand, kidney of rat was homogenized in 20 volumes of ice-cold buffer II for the binding assay to wet-weight of the tissue (1:20, wet-weight/vol) (50 mM sodium phosphate-potassium phosphate buffer solution containing 100 mM sodium chloride, pH 7.4), and then filtrated through 4 layers of gauze, and the filtrate was centrifuged at 40,000×g for 20 minutes. The resulting precipitate was suspended in the buffer II (1 g of wet-weight of tissue/50 ml) and used as a MBR membrane-preparation for the binding assay.
As a labeled ligand and a non-labeled ligand, [^3H]flunitrazepam (final concentration: 1 nM) and diazepam (final concentration: 20 μM) were used respectively, for the CBR binding assay, and [^3H]4′-chlorodiazepam (Ro5-4864, chemical name: 7-chloro-1,3-dihydro-1-methyl-5-(4-chloro-phenyl)-2H-1,4-[…]) (final concentration: 0.5 nM) and diazepam (final concentration: 50 μM) were used respectively, for the MBR binding assay. The binding assay of CBR was carried out by incubating at 0° C. for 30 minutes, while that of MBR was at 0° C. for 150 minutes.
The receptor binding assay was carried out in the following procedure. The test compound which the concentration was known, a tritium labeled ligand, a receptor membrane-preparation and the buffer I or II for the binding assay were added to a 96-well microplate in the total volume was 0.2 ml, and when the receptor membrane-preparation was added, the reaction started. After the incubation, the labeled ligand binding to the receptor was filtrated through a filter plate (UNI FILTER-96GF/B, PerkinElmer, the U.S.) using a cell harvester (PerkinElmer, the U.S.) to stop the reaction. The filter was immediately washed 6 times with 0.3 ml of the ice-cold buffer [50 mM Tris-hydrochloric acid buffer (pH 7.7)]. After 30 μl of liquid scintillation cocktail (MICROSCINTI 20, PerkinElmer, the U.S.) was added to each well on the dried filter plate, the radioactivity was measured with a TopCount. The specific binding amount was obtained by subtracting the non-specific binding amount which was simultaneously measured in the presence of non-labeled ligand from the total binding amount. The concentration that the test compound could decrease the specific binding amount of the labeled ligand to 50% of the amount (IC50 value) was analyzed using nonlinear least-squares method.
Turning to `CC1CCCN(C(=O)[C@H]2[C@@H](O)c3ccccc3N2c2ccc(=O)n(C)n2)C1` (relative stereo) [Example 159, cis-3-hydroxy-1-(1-methyl-6-oxo-1,6-dihydropyridazin-3-yl)-2-[(3-methylpiperidin-1-yl)carbonyl]-indoline], the IC50 is 61.5 nM. Same read-out and setting: the result for `C[C@H]1CCCN(C(=O)C2Cc3c(F)cccc3N2c2ccc(=O)n(C)n2)C1` (single isomer, unassigned) [Example 155a] reads 4.36 nM. As to `C[C@H]1CCCN(C(=O)C2Cc3c(F)cccc3N2c2ccc(=O)n(C)n2)C1` (single isomer, unassigned) [Example 155b], the IC50 was 8.69 nM. Compared with the last molecule, the IC50 is about 2-fold higher.

`C[C@@H]1C[C@H](C)CN(C(=O)[C@@H]2Cc3ccccc3N2c2cccnc2)C1` [Example 33] returned an IC50 of 1.99 nM. `C[C@@H]1C[C@H](C)CN(C(=O)[C@@H]2Cc3ccccc3N2c2ncccc2N)C1` [Example 55, (S)-1-(3-aminopyridin-2-yl)-2-[(cis-3,5-dimethylpiperidin-1-yl)carbonyl]indoline] had an IC50 of 55.1 nM. In the case of `CCC(C)n1nc(N2c3ccccc3CC2C(=O)N2CCCC(C)C2)ccc1=O` (stereo not shown) [Example 76], the IC50 is 3.04 nM. On the same count and under the same terms, the result for `CCc1ccc2c(c1)C[C@@H](C(=O)N1CCC[C@H](C)C1)N2c1cccnn1` [Example 105, (S)-5-ethyl-2-[(S)-3-methylpiperidin-1-yl]-carbonyl-1-(3-pyridazinyl)indoline] reads 80.7 nM; that for `Cn1nc(N2c3ccccc3CC2C(=O)N2CCCC(C(F)(F)F)C2)ccc1=O` (stereo not shown) [Example 108], 17.7 nM; that for `Cn1nc(N2c3ccccc3C[C@H]2C(=O)N2CCCCCC2)ccc1=O` [Example 118, (S)-1-(1-methyl-6-oxo-1,6-dihydropyridazin-3-yl)-2-[(1-perhydroazepinyl)carbonyl]indoline], 4.22 nM. On the same count and under the same terms, then `Cn1nc(N2c3ccccc3C[C@H]2C(=O)N2CCCCCCC2)ccc1=O` [Example 119, (S)-1-(1-methyl-6-oxo-1,6-dihydropyridazin-3-yl)-2-[(1-perhydroazocinyl)carbonyl]indoline], with 3.98 nM.

With `C[C@H]1CCCN(C(=O)[C@@H]2Cc3ccccc3N2c2ccc(=O)n(CC(=O)c3ccccc3)n2)C1` [Example 124], the IC50 is 2.39 nM. The molecule `C[C@H]1CCCN(C(=O)[C@@H]2Cc3ccccc3N2c2ccc(=O)n(CC3CCC3)n2)C1` [Example 125] yielded an IC50 of 1.33 nM. Still for that read-out and setting: then `C[C@H]1CCCN(C(=O)[C@@H]2Cc3ccccc3N2c2ccc(=O)n(C3CCCC3)n2)C1` [Example 126], with 2.69 nM.

With `C[C@H]1CCCN(C(=O)C2Cc3cc(O)ccc3N2c2ccc(=O)n(C)n2)C1` (stereo partly drawn) [Example 136, 5-hydroxy-1-(1-methyl-6-oxo-1,6-dihydropyridazin-3-yl)-2-[[(S)-3-methylpiperidin-1-yl]carbonyl]indoline], the 50% inhibitory concentration (IC50) is 67 nM. This IC50 lies about 25-fold higher than the previous one. `C[C@H]1CCCN(C(=O)[C@@H]2Cc3ccccc3N2c2ccc(=S)n(C)n2)C1` [Example 139, (S)-2-[[(S)-3-methylpiperidin-1-yl]carbonyl]-1-(1-methyl-6-thioxo-1,6-dihydropyridazin-3-yl)indoline] had an IC50 of 7.15 nM. Against the preceding molecule, the IC50 is about 9.4-fold lower. `CC1c2ccccc2N(c2ccc(Cl)nn2)C1C(=O)N1CCC[C@H](C)C1` (stereo partly drawn) [Example 140, 1-(6-chloropyridazin-3-yl)-3-methyl-2-[[(S)-3-methylpiperidin-1-yl]carbonyl]indoline] registered an IC50 of 3.84 nM. This IC50 lies about 1.9-fold lower than the previous one. On to `CC1c2ccccc2N(c2ccc(=O)n(C)n2)C1C(=O)N1CCC[C@H](C)C1` (stereo partly drawn) [Example 141, 3-methyl-1-(1-methyl-6-oxo-1,6-dihydropyridazin-3-yl)-2-[[(S)-3-methylpiperidin-1-yl]carbonyl]indoline], for which the IC50 turned out to be 12.3 nM. Still for that read-out and setting: the result for `C[C@H]1CCCN(C(=O)[C@@H]2Cc3ccccc3N2c2ccc(=O)[nH]n2)C1` [Example 143, (S)-2-[[(S)-3-methylpiperidin-1-yl]carbonyl]-1-(6-oxo-1,6-dihydropyridazin-3-yl)indoline] reads 8.69 nM. Molecule `CC1CCCCN1C(=O)[C@@H]1Cc2ccccc2N1c1ccc(=O)n(C)n1` (stereo partly drawn) [Example 145, (S)-1-(1-methyl-6-oxo-1,6-dihydropyridazin-3-yl)-2-[(2-methylpiperidin-1-yl)carbonyl]indoline] gave an IC50 of 31 nM.

On to `CCC1CCCN(C(=O)[C@@H]2Cc3ccccc3N2c2ccc(=O)n(C)n2)C1` (stereo partly drawn) [Example 146, (S)-2-[(3-ethylpiperidin-1-yl)carbonyl]-1-(1-methyl-6-oxo-1,6-dihydropyridazin-3-yl)indoline], for which the IC50 amounted to 4.91 nM. Still for that read-out and setting: then `CCCC1CCCN(C(=O)[C@@H]2Cc3ccccc3N2c2ccc(=O)n(C)n2)C1` (stereo partly drawn) [Example 147, (S)-1-(1-methyl-6-oxo-1,6-dihydropyridazin-3-yl)-2-[(3-propylpiperidin-1-yl)carbonyl]indoline], with 3.8 nM; and `CC1CCN(C(=O)[C@@H]2Cc3ccccc3N2c2ccc(=O)n(C)n2)C1` (stereo partly drawn) [Example 148, (S)-1-(1-methyl-6-oxo-1,6-dihydropyridazin-3-yl)-2-[(3-methylpyrrolidin-1-yl)carbonyl]indoline], with 44.7 nM. Turning to `CCC1CCN(C(=O)[C@@H]2Cc3ccccc3N2c2ccc(=O)n(C)n2)C1` (stereo partly drawn) [Example 149, (S)-2-[(3-ethylpyrrolidin-1-yl)carbonyl]-1-(1-methyl-6-oxo-1,6-dihydropyridazin-3-yl)indoline], the IC50 was determined as 5.35 nM. The same measure, in the same setting: the result for `CC1CCCCN(C(=O)[C@@H]2Cc3ccccc3N2c2ccc(=O)n(C)n2)C1` (stereo partly drawn) [Example 150, (S)-1-(1-methyl-6-oxo-1,6-dihydropyridazin-3-yl)-2-[(3-methylperhydroazepin-1-yl)carbonyl]indoline] reads 5.36 nM. Same read-out and setting: then `CCC1CCCCN(C(=O)[C@@H]2Cc3ccccc3N2c2ccc(=O)n(C)n2)C1` (stereo partly drawn) [Example 151, (S)-2-[(3-ethylperhydroazepin-1-yl)carbonyl]-1-(1-methyl-6-oxo-1,6-dihydropyridazin-3-yl)indoline], with 3.59 nM.

Consider `Cn1nc(N2c3ccccc3C[C@H]2C(=O)N2CCCC(C)(C)C2)ccc1=O` [Example 152, (S)-2-[(3,3-dimethylpiperidin-1-yl)carbonyl]-1-(1-methyl-6-oxo-1,6-dihydropyridazin-3-yl)indoline], for which the half-maximal inhibitory concentration (IC50) worked out at 7.29 nM. In turn, `C[C@H]1CCCN(C(=O)[C@@H]2Cc3ccccc3N2c2nccs2)C1` [Example 153, (S)-2-[(S)-3-methylpiperidin-1-yl]carbonyl-1-(1,3-thiazol-2-yl)indoline] returned a 50% inhibitory concentration (IC50) of 1.13 nM. For `C[C@H]1CCCN(C(=O)[C@@H]2Cc3ccccc3N2c2ccc3nncn3n2)C1` [Example 154, (S)-2-[[(S)-3-methylpiperidin-1-yl]carbonyl]-1-(1,2,4-triazolo[4,3-b]pyridazin-6-yl)indoline], the IC50 was 5 nM. This IC50 is about 4.4-fold higher than that of the molecule before.

As for `Cn1nc(N2c3cccc(F)c3CC2C(=O)N2CCCCCC2)ccc1=O` (stereo not shown) [Example 156, 4-fluoro-1-(1-methyl-6-oxo-1,6-dihydropyridazin-3-yl)-2-[(1-perhydroazepinyl)carbonyl]indoline], the IC50 is 2.76 nM. This IC50 is about 1.8-fold lower than that of the molecule before. With `Cn1nc(N2c3cc(F)ccc3CC2C(=O)N2CCCCCC2)ccc1=O` (stereo not shown) [Example 158, 6-fluoro-1-(1-methyl-6-oxo-1,6-dihydropyridazin-3-yl)-2-[(1-perhydroazepinyl)carbonyl]indoline], the IC50 turned out to be 28.5 nM.
